Assay results from patent publication US9556201B2, “Bicyclic pyridines and analogs as sirtuin modulators” (GLAXOSMITHKLINE LLC, priority 2009, dated 2017).

Target: T1, SIRT1 (Homo sapiens, UniProt Q96EB6)
T1 sequence (Q96EB6 1-747): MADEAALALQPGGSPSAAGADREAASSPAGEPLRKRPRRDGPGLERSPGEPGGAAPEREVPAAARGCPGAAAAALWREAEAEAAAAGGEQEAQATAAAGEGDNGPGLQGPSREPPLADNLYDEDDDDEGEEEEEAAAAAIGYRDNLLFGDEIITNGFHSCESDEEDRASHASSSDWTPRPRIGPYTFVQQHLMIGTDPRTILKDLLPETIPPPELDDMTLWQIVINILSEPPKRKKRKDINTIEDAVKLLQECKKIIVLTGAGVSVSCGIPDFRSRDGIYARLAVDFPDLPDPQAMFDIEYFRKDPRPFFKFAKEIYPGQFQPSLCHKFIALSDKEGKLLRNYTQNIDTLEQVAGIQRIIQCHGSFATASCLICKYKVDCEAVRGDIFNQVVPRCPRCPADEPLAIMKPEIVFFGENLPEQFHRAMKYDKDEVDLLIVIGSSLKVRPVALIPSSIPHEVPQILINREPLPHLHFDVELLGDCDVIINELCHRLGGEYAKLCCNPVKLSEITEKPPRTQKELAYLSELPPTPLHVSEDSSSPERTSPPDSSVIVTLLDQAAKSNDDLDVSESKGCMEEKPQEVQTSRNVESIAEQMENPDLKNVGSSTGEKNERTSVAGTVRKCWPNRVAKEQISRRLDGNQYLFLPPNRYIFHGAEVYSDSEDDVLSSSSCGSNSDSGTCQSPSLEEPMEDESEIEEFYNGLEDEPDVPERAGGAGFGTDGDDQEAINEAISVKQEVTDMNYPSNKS
Assay: Mass spectrometry based assay to identify modulators of SIRT1 activity (deacetylation of p53-based acetylated peptide substrate)
Type: biochemical
Conditions: for Emax: 25 min, read-out: % FOLD ACT. (percent maximum fold activation); for Emax / EC1.5: SIRT1 activation
From the text: A mass spectrometry based assay was used to identify modulators of SIRT1 activity. The mass spectrometry based assay utilizes a peptide having 20 amino acid residues as follows: Ac-EE-K(biotin)-GQSTSSHSK(Ac)NleSTEG-K(5TMR)-EE-NH2 (SEQ ID NO: 1) wherein K(Ac) is an acetylated lysine residue and Nle is a norleucine. The peptide is labeled with the fluorophore 5TMR (excitation 540 nm/emission 580 nm) at the C-terminus. The sequence of the peptide substrate is based on p53 with several modifications. In addition, the methionine residue naturally present in the sequence was replaced with the norleucine because the methionine may be susceptible to oxidation during synthesis and purification.
The mass spectrometry assay is conducted as follows: […] peptide substrate and 120 μM βNAD^+ is incubated with 10 nM SIRT1 for 25 minutes at 25° C. in a reaction buffer (50 mM Tris-acetate pH 8, 137 mM NaCl, 2.7 mM KCl, 1 mM MgCl2, 5 mM DTT, 0.05% BSA). Test compounds may be added to the reaction as described above. The SirT1 gene is cloned into a T7-promoter containing vector and transformed into BL21(DE3). After the 25 minute incubation with SIRT1, 10 μL of 10% formic acid is added to stop the reaction. Reactions are sealed and frozen for later mass spec analysis. Determination of the mass of the substrate peptide allows for precise determination of the degree of acetylation (i.e. starting material) as compared to deacetylated peptide (product).
A control for inhibition of sirtuin activity is conducted by adding 1 μL of 500 mM nicotinamide as a negative control at the start of the reaction (e.g., permits determination of maximum sirtuin inhibition). A control for activation of sirtuin activity is conducted using 10 nM of sirtuin protein, with 1 μL of DMSO in place of compound, to determine the amount of deacetylation of the substrate at a given timepoint within the linear range of the assay. This timepoint is the same as that used for test compounds and, within the linear range, the endpoint represents a change in velocity.
For the above assay, SIRT1 protein was expressed and purified as follows. The SirT1 gene was cloned into a T7-promoter containing vector and transformed into BL21(DE3). The protein was expressed by induction with 1 mM IPTG as an N-terminal His-tag fusion protein at 18° C. overnight and harvested at 30,000×g. Cells were lysed with lysozyme in lysis buffer (50 mM Tris-HCl, 2 mM Tris[2-carboxyethyl]phosphine (TCEP), 10 μM ZnCl2, 200 mM NaCl) and further treated with sonication for 10 min for complete lysis. The protein was purified over a Ni-NTA column (Amersham) and fractions containing pure protein were pooled, concentrated and run over a sizing column (Sephadex S200 26/60 global). The peak containing soluble protein was collected and run on an Ion-exchange column (MonoQ). Gradient elution (200 mM-500 mM NaCl) yielded pure protein. This protein was concentrated and dialyzed against dialysis buffer (20 mM Tris-HCl, 2 mM TCEP) overnight. The protein was aliquoted and frozen at −80° C. until further use.

EC1.5 (concentration giving 1.5-fold activation) [µM]	Emax [%]	EC1.5	Structure (SMILES)
> 25	≤ 200	–	Cc1nn(C)c(C)c1NC(=O)N1CCCOc2ccc(-c3cccc(Cl)c3)nc21 [Compound 879]
–	> 200	B (EC1.5 1-25 μM)	Cc1csc(NC(=O)N2CCCOc3ccc(-c4cccc(F)c4)nc32)n1 [Compound 583]
> 25	≤ 200	–	CC1(C)CCN(C(=O)Nc2ccncc2F)c2nc(-c3cccc(C(F)(F)F)c3)ccc21 [Compound 847]
–	> 200	B (EC1.5 1-25 μM)	O=C(Nc1ccncc1)N1CCOc2ccc(-c3cccc(F)c3)nc21 [Compound 542]
1 to 25	≤ 200	–	CC1(C)CCN(C(=O)Nc2ccncc2F)c2nc(-c3cccc(Cl)c3)ccc2C1=O [Compound 836, 2-(3-chlorophenyl)-N-(3-fluoropyridin-4-yl)-6,6-dimethyl-5-oxo-7,8-dihydro-5H-pyrido[2,3-b]azepine-9(6H)-carboxamide]
< 1	> 200	–	COc1cc(NC(=O)N2CCCOc3ccc(-c4cccc(Cl)c4)nc32)ncn1 [Compound 872]
< 1	≤ 200	–	Cc1cc(NC(=O)N2CCOc3c(N(C)C)nc(-c4cccc(F)c4)nc32)cc(C)n1 [Compound 727]
1 to 25	> 200	–	O=C1CCN(C(=O)Nc2ccncc2)c2nc(-c3cccc(C(F)(F)F)c3)ccc21 [Compound 719, 4-oxo-N-(pyridin-4-yl)-7-(3-(trifluoromethyl)phenyl)-3,4-dihydro-1,8-naphthyridine-1(2H)-carboxamide]
1 to 25	> 200	–	CCN1CCCN(C(=O)Nc2cccc(OC[C@@H](O)CO)n2)c2nc(-c3cccc(Cl)c3)ccc21 [Compound 796]
> 25	≤ 200	–	Cc1csc(NC(=O)N2CCOc3ncc(-c4cccc(C(F)(F)F)c4)nc32)n1 [Compound 740, N-(4-methylthiazol-2-yl)-6-(3-(trifluoromethyl)phenyl)-2H-pyrazino[2,3-b][1,4]oxazine-4(3H)-carboxamide]
–	≤ 200	C (EC1.5>25 μM)	O=C(c1cccc(OCC(O)CO)c1)N1CCCc2ccc(-c3cccc(C(F)(F)F)c3)nc21 (centres unmarked) [Compound 642, (3-(2,3-dihydroxypropoxy)phenyl)(7-(3-(trifluoromethyl)phenyl)-3,4-dihydro-1,8-naphthyridin-1(2H)-yl)methanone]
1 to 25	> 200	–	O=C1CCCN(C(=O)Nc2cccnc2)c2nc(-c3cccc(C(F)(F)F)c3)ccc21 [Compound 829]
–	> 200	B (EC1.5 1-25 μM)	COc1cccc(-c2ccc3c(n2)N(C(=O)Nc2ccncn2)CCO3)c1 [Compound 515]
–	> 200	A (EC1.5<1.0 μM)	O=C(Nc1cncc(F)c1)N1CCOc2ccc(-c3cccc(C(F)(F)F)c3)nc21 [Compound 547]
–	> 200	A (EC1.5<1.0 μM)	O=C(Nc1ccccn1)N1CCCc2ccc(-c3cccc(Cl)c3)nc21 [Compound 652]
–	> 200	B (EC1.5 1-25 μM)	O=C(Nc1ncccn1)N1CCCc2ccc(-c3cccc(F)c3)nc21 [Compound 665]
< 1	> 200	–	CC1CCN(C(=O)Nc2ccccn2)c2nc(-c3cccc(C(F)(F)F)c3)ccc21 (centres unmarked) [Compound 785, 4-methyl-N-(pyridin-2-yl)-7-(3-(trifluoromethyl)phenyl)-3,4-dihydro-1,8-naphthyridine-1(2H)-carboxamide]
1 to 25	> 200	–	O=C(Nc1ccncc1)N1CCC(F)(F)c2ccc(-c3cccc(C(F)(F)F)c3)nc21 [Compound 743, 4,4-difluoro-N-(pyridin-4-yl)-7-(3-(trifluoromethyl)phenyl)-3,4-dihydro-1,8-naphthyridine-1(2H)-carboxamide]
–	≤ 200	B (EC1.5 1-25 μM)	Cc1cnc(NC(=O)N2CCN(C)c3ccc(-c4cccc(C(F)(F)F)c4)nc32)s1 [Compound 530]
